Assay results from article PMC5216351, “Obtaining control of cell surface functionalizations via Pre-targeting and Supramolecular host guest interactions” (Scientific Reports, 2017).
Positions of bridges follow the written chain, without caps; N, C: chain ends. Non-standard residues stand in square brackets, D forms with d. Residues, ends and D or L forms follow the SMILES beside them. *: point of attachment. Adamantane1carbonyl = O=C(C12CC3CC(CC(C3)C1)C2)*; 2Nal = N[C@@H](Cc1ccc2ccccc2c1)C(=O)O; Cit = NC(=O)NCCC[C@H](N)C(=O)O

Key:
[1] = molecular target: T1, chemokine receptor 4 (CXCR4) (Homo sapiens, UniProt P61073); assay: Flow cytometry competition binding on viable CXCR4 expressing cells (receptor affinity); conditions: competition with Ac-TZ14011-MSAP (250 nM), 0.5 – 15,000 nM in PBS, MDAMB231 X4 cells, 1 h on ice, n = 2, One site-Fit Ki
T1 construct: expressed in transfected cells; host or cells: MDAMB231 X4 (human MDA-MB-231 breast cancer cells, provided by Dr. Gary Luker)
T1 sequence (P61073 whole entry): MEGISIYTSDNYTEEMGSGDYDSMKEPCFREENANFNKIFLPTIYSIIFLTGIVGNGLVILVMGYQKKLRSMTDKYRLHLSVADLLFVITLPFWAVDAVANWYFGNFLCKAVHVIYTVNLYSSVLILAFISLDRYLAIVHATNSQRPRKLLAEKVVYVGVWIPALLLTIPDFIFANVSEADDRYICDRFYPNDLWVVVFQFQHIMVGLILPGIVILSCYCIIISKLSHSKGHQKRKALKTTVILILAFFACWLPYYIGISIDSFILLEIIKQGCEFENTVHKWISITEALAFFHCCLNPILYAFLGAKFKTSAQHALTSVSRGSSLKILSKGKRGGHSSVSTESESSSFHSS
Method: Human MDAMB231 cells, transfected with human CXCR4 conjugated GFP (MDAMB231 X4), were kindly provided by Dr. Gary Luker (Center for Molecular Imaging, University of Michigan, USA).5 Native MDAMB231 cells with basal CXCR4 expression were used as control.6 Cells we re maintained in Dulbecco’s minimum essential medium (DMEM) enriched with 10% fetal bovine serum and 5 mL Penicillin/Streptomycin (1,000 units/mL Penicillin; 1,000 μg/mL Streptomycin) (all Life Technologies Inc.). Cell lines were cultured and maintained under standard conditions […]
One day prior the experiment, cells were trypsinized, seeded onto culture dishes with glass insert (ø35mm glass bottom dishes No. 15, poly-d-lysine coated, γ-Irradiated, MatTek corporation) and incubated overnight in 2 mL DMEM. […] The intrinsic GFP signal in the MDAMB231 X4 cells was measured with excitation at 488 nm and emission was collected at 500-525 nm.
Cy3 fluorescence was measured with excitation at 514 nm, emission was collected at 550-5 70 nm. Cy5 fluorescence was measured with excitation at 633 nm, emission was collected at 650-700 nm. Any Hoechst 33342 fluorescence was measured using 405 nm excitation and emission was collected at 420-470 nm. Images and signal quantifications were obtained using Leica Application Suite software, by applying the polygon function and calculating the average gray value/m2 for each cell. […]

MDAMB231 X4 cells = assay: Host-guest dependent cell functionalization, confocal microscopy and flow cytometry; type: cell-based, human; conditions: peptide 10 μM, polymer 10 μM β-CD / 1 μM polymer, 1 h each at 0 °C; Fig. 3a
Method: The receptor-mediated functionalization of cells was examined by confocal microscopy and flow cytometry (see also ‘Ac-TZ14011-Ad induced cell functionalization analyzed by flow cytometry’). For Confocal microscopy MDAMB231 × 4 cells (80,000 per well) were incubated with either Ac-TZ14011 (10 μM), Ac-TZ14011-Ad (10 μM), or none, for 1 h at 0 °C in 1 mL DMEM. […] Thereafter, the cells were washed twice with PBS and confocal images were acquired. All experiments were performed in 6-fold and for each condition per experiment at least 10 cells were included in the study. The Cy5 signal present on the cell in each sample was quantified to analyze differences between the amount of binding of the polymers to the cells when either, no peptide, Ac-TZ14011, or Ac-TZ14011-Ad was present. For normalization all results were divided by the average fluorescence value obtained when just the polymer was added. The significance of the obtained differences was determined by student T-test (two tailed, unpaired).
Besides examining the receptor-mediated functionalization of cells by confocal microscopy (see ‘Ac-TZ14011-Ad induced cell functionalization analyzed by confocal microscopy’) the functionalization was also examined by flow cytometry to quantify the rate of functionalization. […] For data normalization, all results were divided by the average fluorescence value obtained when only the polymer was added. […]

Structure (SMILES): CC(=O)N[C@@H](CCCNC(=N)N)C(=O)N[C@@H](CCCNC(=N)N)C(=O)N[C@@H](Cc1ccc2ccccc2c1)C(=O)N[C@H]1CSSC[C@@H](C(=O)N[C@@H](CCCNC(=N)N)C(N)=O)NC(=O)[C@H](CCCNC(N)=O)NC(=O)[C@H](CCCNC(=N)N)NC(=O)[C@H](Cc2ccc(O)cc2)NC(=O)[C@@H]2CCCN2C(=O)[C@@H](CCCCNC(=O)C23CC4CC(CC(C4)C2)C3)NC(=O)[C@H](CCCNC(=N)N)NC(=O)[C@H](CCCNC(N)=O)NC(=O)[C@H](Cc2ccc(O)cc2)NC1=O [Ac-TZ14011-Ad] (Ac-RR[2Nal]CY[Cit]R[dK](Adamantane1carbonyl)PYR[Cit]CR-NH2; disulfide 4-13)
- Kd [1]: 0.056 µM
- effect of pre-targeting peptide on Cy5_0.5CD10PIBMA39 binding (MDAMB231 X4 cells): further enhances this effect
